Results taken from US10342795B2, “Substituted 4,5,6,7-tetrahydro-pyrazolo[1,5-a]pyrimidine derivatives and 2,3-dihydro-1H-imidazo[1,2-b]pyrazole derivatives as ROS1 inhibitors” (Janssen Pharmaceutica NV, priority 2014, dated 2019).

What was measured:
Ros1 enzyme = molecular target: T1, Ros1 enzyme (Homo sapiens, UniProt P08922); experiment: Ros1 enzymatic assay; assay type: biochemical; settings: -log IC50 (M); 20 μM ATP, 120 min at room temperature; read-out: ROS1 pIC50 (converted)
T1 construct: 0.5 μg/ml Ros1 enzyme
Procedure: Compounds were spotted onto white 384-well Proxiplate plus plates (Perkin Elmer) to which 5 μl of enzyme mix (0.5 μg/ml Ros1 enzyme, 50 mM Tris-HCl pH7.5, 1 mM EGTA, 10 mM MgCl2, 0.01% Tween-20) and 5 μl of substrate mix (6 μg/ml IRS-Tide [American Peptide Company], 20 μM ATP, 13.33 μCi/ml ATP (adenosine 5′-triphosphate) P^33, 50 mM Tris-HCl pH7.5, 1 mM EGTA (ethylene glycol-bis(2-aminoethylether)-N,N,N′,N′-tetraacetic acid), 10 mM MgCl2, 0.01% Tween-20) were added. After incubation for 120 minutes at room temperature, 10 μl of stop reaction buffer (5 mM EDTA, 50 μM ATP, 0.1% BSA (bovine serum albumin), 0.1% Triton X-100, 50 mM Tris-HCl pH7.5, 1 mM EGTA, 10 mM MgCl2, 0.01% Tween-20) containing 2 mg/ml streptavidin coupled polystyrene imaging beads (Amersham Biosciences) was added and incubated for 15 minutes at room temperature. Plates were centrifuged for 3 minutes at 1500 rpm and signals detected in a LEADseeker imaging system (GE).

[1] = molecular target: Ba/F3 cells containing Ros1 wild-type protein (Homo sapiens, UniProt P08922, cells depend on it, form not given); experiment: Ba/F3-Ros1 cell proliferation assay, wild-type Ros1, without IL-3; assay type: cell-based, murine; settings: -log IC50 (M); wild-type Ros1, no IL-3, 24 h, Alamar Blue
Ba/F3 cells containing Ros1 wild-type protein, sequence (P08922 whole entry, stated change not applied): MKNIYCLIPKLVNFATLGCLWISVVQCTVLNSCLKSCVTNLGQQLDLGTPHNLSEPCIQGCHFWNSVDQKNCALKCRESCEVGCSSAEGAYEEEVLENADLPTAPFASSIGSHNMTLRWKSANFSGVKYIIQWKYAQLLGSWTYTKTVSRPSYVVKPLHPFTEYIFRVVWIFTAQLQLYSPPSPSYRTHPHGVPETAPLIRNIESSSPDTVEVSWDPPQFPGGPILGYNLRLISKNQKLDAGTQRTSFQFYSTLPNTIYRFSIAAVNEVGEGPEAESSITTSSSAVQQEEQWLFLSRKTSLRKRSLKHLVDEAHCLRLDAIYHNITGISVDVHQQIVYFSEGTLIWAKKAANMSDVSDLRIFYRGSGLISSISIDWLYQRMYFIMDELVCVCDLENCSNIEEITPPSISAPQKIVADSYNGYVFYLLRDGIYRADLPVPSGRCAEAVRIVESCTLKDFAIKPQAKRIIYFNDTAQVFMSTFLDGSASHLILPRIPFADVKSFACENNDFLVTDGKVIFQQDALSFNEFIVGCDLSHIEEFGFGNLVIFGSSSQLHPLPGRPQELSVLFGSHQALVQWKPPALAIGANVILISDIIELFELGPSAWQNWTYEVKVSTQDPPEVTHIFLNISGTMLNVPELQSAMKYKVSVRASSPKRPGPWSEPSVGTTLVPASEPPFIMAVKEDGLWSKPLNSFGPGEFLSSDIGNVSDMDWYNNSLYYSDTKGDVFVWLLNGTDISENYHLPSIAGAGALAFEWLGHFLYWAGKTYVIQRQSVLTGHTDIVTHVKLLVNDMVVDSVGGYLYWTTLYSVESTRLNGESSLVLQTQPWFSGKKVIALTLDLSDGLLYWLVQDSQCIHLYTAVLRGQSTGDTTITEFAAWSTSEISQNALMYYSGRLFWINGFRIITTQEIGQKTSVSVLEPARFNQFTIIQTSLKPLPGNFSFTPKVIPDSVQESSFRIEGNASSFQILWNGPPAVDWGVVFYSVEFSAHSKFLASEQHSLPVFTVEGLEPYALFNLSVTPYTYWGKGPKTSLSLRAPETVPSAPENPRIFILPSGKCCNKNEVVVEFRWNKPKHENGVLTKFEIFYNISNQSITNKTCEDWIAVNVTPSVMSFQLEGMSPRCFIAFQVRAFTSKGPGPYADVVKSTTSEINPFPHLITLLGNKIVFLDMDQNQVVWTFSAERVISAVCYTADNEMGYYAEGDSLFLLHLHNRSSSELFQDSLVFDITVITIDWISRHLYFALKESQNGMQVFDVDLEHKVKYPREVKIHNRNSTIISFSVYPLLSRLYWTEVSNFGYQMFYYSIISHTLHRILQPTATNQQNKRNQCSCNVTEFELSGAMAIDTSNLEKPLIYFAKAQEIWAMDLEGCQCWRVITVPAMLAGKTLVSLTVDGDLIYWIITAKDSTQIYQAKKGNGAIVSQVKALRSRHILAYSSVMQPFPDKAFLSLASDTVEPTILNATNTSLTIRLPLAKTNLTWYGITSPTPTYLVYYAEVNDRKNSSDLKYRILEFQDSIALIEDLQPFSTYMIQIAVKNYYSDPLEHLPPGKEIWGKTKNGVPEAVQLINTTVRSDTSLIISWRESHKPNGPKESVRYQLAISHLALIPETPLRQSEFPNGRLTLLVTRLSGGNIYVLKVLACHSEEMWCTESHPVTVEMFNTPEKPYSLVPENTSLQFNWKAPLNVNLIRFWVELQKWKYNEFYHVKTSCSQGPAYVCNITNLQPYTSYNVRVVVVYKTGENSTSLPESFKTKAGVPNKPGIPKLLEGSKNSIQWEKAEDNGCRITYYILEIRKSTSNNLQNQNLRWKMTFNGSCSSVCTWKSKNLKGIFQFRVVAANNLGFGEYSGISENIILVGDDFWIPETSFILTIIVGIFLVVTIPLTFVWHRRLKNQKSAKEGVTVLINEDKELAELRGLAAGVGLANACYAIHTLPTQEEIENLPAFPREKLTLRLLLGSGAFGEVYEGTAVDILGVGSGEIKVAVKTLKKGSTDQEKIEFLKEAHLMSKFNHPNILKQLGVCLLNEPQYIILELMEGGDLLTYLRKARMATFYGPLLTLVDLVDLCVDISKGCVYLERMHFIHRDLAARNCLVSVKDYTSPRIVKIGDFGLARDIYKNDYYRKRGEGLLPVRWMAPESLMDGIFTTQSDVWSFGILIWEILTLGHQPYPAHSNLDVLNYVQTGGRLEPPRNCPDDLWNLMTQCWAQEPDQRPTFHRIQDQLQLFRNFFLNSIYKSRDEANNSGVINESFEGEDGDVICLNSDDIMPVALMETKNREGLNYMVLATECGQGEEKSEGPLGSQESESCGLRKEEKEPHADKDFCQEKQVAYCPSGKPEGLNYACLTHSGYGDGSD
Procedure: (§1) This assay was carried out with Ba/F3 cells containing three different versions of Ros1: the wild-type protein, protein with a mutation at the gatekeeper residue (L2026M), and protein with a mutation identified in a tumor from a patient that became resistant to crizotinib (Xalkori®) treatment (G2032R). Compounds were solubilized in 100% DMSO (dimethyl sulfoxide) and sprayed into polystyrene, tissue culture treated 384-well plates. A 50 μl volume of cell culture medium (phenol red free RPMI-1640, 10% FBS (fetal bovine serum), 2 mM L-Glutamine) containing 20000 Ba/F3-Ros1 cells was added to each well and the plates were placed in an incubator at 37° C. and 5% CO2. After 24 hours, 10 μl of Alamar Blue solution (0.5 mM K3Fe(CN)6, 0.5 mM K4Fe(CN)6, 0.15 mM Resazurin and 100 mM Phosphate Buffer) was added to the wells, incubated for 4 hours at 37° C. and 5% CO2 before RFU's (Relative Fluorescence Units) (ex. 540 nm., em. 590 nm.) were measured in a fluorescence plate reader.

[2] = test system: Ba/F3 cells containing Ros1 wild-type protein + IL-3; experiment: Ba/F3-Ros1 cell proliferation counter-screen, wild-type Ros1 in the presence of murine IL-3; assay type: cell-based; settings: Mus musculus, BaF3, 24 h; -log IC50 (M); wild-type Ros1, 10 ng/ml murine IL-3 (counter-screen); read-out: BaF3-ROS1 + IL3 pIC50 (converted)
Procedure: as §1
As a counter-screen the same experiment was performed for the wild-type protein in the presence of 10 ng/ml murine IL-3.

[3] = molecular target: Ba/F3 cells containing Ros1 L2026M (Homo sapiens, UniProt P08922, L2026M, cells depend on it, form not given); experiment: Ba/F3-Ros1 cell proliferation assay, L2026M gatekeeper mutant; assay type: cell-based, murine; settings: -log IC50 (M), no IL-3
Ba/F3 cells containing Ros1 L2026M, sequence (P08922 whole entry L2026M, form open): as the sequence (P08922 whole entry, stated change not applied) above, with L2026M counted along it
Procedure: as §1

[4] = molecular target: Ba/F3 cells containing Ros1 G2032R (Homo sapiens, UniProt P08922, G2032R, cells depend on it, form not given); experiment: Ba/F3-Ros1 cell proliferation assay, G2032R mutant; assay type: cell-based, murine; settings: -log IC50 (M), no IL-3
Ba/F3 cells containing Ros1 G2032R, sequence (P08922 whole entry G2032R, form open): as the sequence (P08922 whole entry, stated change not applied) above, with G2032R counted along it
Procedure: as §1

[5] = test system: HCC78 non-small cell lung cancer cells; experiment: HCC78 cell proliferation assay; assay type: cell-based; settings: Homo sapiens, HCC78, 96 h; -log EC50 (M); 4 days, MTT; read-out: HCC-78 PROL pEC50 (converted)
Procedure: Approximately 1000 HCC78 non-small cell lung cancer cells in 180 μl of cell culture medium (RPMI-1640, 10% FBS, 2 mM L-Glutamine, 10 mM Hepes, 1 mM sodium pyruvate, 4.5 g/L glucose, 1.5 g/L sodium bicarbonate, 25 μg/ml Gentamycin) were seeded in each well of a 96-well polystyrene, tissue-culture treated plate and incubated at 37° C. and 5% CO2. After 24 hours, compounds were diluted in cell culture medium from which 20 μl was added to the wells containing cells and incubated for 4 days at 37° C. and 5% CO2. A 5 mg/ml solution of the tetrazolium dye MTT was prepared in PBS (phosphate-buffered saline) and 25 μl was added to each well. After 2 hours the medium was removed and replaced by 125 μL of 4/1 DMSO/glycine buffer (0.1M glycine, 0.1M NaCl, pH 10.5) before absorbance was determined at 538 nm.

Ba/F3-Ros1 G2032R tumors = experiment: Efficacy study in mice bearing Ba/F3-Ros1 G2032R tumors; assay type: in vivo, NMRI nude mice; settings: oral gavage, 10 days, 20% cyclodextrin, change in final relative tumor volumes
Procedure: Approximately 2×10^6 Ba/F3 cells containing G2032R mutant Ros1 were inoculated into the inguinal region of NMRI nude mice. When the resulting tumors reached a size of 250 to 350 mm^3, mice were randomly assigned to the different treatment groups (8 to 12 mice per group). Compounds formulated in 20% cyclodextrin were administered to the mice by oral gavage at various doses for 10-days once (QD) or twice (BID) a day (see table below for administration frequency used in the study). Tumor sizes were determined by caliper measurement on day 1 prior to treatment and then twice weekly for the duration of the study using the commonly following formula: tumor volume (mm^3)=(a×b^2/2); where ‘a’ represents the length, and ‘b’ the width of the tumor. Treatment/control (T/C) ratios were calculated at the end of the study based on the change in final relative tumor volumes.

Ros pY2274 = Ros pY2274 (Homo sapiens, UniProt P08922); experiment: pROS1 immunofluorescence assay in HCC78 cells; assay type: cell-based; settings: -log IC50 (M); 4 hours, Ros1 pY2274 normalized to total Ros1
Ros pY2274, sequence (P08922 1750-2347): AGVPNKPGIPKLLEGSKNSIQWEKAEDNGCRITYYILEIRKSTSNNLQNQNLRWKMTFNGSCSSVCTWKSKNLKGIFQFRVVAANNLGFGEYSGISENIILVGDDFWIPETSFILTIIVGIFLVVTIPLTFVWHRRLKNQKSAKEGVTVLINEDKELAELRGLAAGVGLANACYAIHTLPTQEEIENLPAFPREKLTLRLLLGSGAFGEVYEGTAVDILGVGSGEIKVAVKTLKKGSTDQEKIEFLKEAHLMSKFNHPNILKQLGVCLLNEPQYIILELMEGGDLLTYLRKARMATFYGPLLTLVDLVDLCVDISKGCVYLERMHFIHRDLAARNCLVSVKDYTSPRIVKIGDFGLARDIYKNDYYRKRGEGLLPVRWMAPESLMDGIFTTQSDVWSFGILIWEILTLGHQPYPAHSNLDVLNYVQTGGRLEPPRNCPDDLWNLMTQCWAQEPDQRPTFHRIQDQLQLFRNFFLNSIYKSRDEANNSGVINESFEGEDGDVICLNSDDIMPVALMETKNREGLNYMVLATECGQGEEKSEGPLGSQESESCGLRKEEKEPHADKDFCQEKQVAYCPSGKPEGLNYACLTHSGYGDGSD
Procedure: Approximately 20000 HCC78 non-small cell lung cancer cells in 180 μl of cell culture medium (RPMI-1640, 10% FBS, 2 mM L-Glutamine, 10 mM Hepes, 1 mM sodium pyruvate, 4.5 g/L glucose, 1.5 g/L sodium bicarbonate, 25 μg/ml Gentamycin) were seeded in each well of a 96-well polystyrene, poly-D-lysine coated plate and incubated at 37° C. and 5% CO2. After 24 hours, compounds were diluted in cell culture medium from which 20 μl was added to the wells containing cells and incubated for 4 hours at 37° C. and 5% CO2. The medium was removed and the cells were fixed by adding 100 μl of 5% formaldehyde in TBS (tris-buffered saline) (50 mM Tris.HCl, pH 7.4, 150 mM NaCl) and incubating for 15 minutes at room temperature. The formaldehyde was removed and replaced with methanol for 10 minutes at room temperature, after which the cells were washed 3 times with TBS containing 1% Triton X-100 and incubated in Odyssee (Li-Cor) blocking buffer for 1 hour at room temperature. The cells were then incubated with the primary rabbit antibody directed against Ros pY2274 (cst-3078) diluted 1/200 in blocking buffer for 24 hours at room temperature. The cells were washed three times with TBS containing 0.1% Triton X-100 and incubated with a secondary anti-rabbit antibody conjugated to the fluorescent dye Alexafluor 680 in blocking buffer for 1 hour at room temperature. The cells were washed three times with TBS containing 0.1% Triton X-100 and left to dry before measuring RFUs (Relative Fluorescence Units) at 700 nm using a fluorescence imager. The same experiment was performed using total Ros1 antibody (sc-6347) diluted 1/1000 instead of Ros1 pY2274 antibody and an anti-goat antibody conjugated to IRDye800cw as a secondary antibody. RFUs were measured at […]. The signals from total Ros1 detection were used to normalize the Ros1pY2274 values.

IC50 (Ros1 enzyme) [M]	BaF3-ROS1 − IL3 pIC50 [1]	Ba/F3 Ros1 L2026M (-IL-3) pIC50 [3]	Ba/3 Ros1 G2032R (-IL-3) pIC50 [4]	EC50 [5] [M]	melting point [°C]	HCC78 pRos pIC50 (Ros pY2274)	SMILES	CC50 [2] [M]	T/C (%) (Ba/F3-Ros1 G2032R tumors; 12.5 mg/kg BID)	T/C (%) (Ba/F3-Ros1 G2032R tumors; 25 mg/kg BID)	T/C (%) (Ba/F3-Ros1 G2032R tumors; 50 mg/kg BID)
1.26e-07	7.0	~6.7	6.4	7.94e-07	156		CC(C)c1ccc(COc2ccc(-c3c(-c4ccncc4)nn4c3NCC4)cc2)cc1 [Co. 1]	5.01e-06	64	16	−18
2.51e-07	6.8	7.5	6.2	6.31e-07	159		c1cc(-c2nn3c(c2-c2ccc(OCc4ccc(C5CC5)cc4)cc2)NCC3)ccn1 [Co. 7]	> 1e-05			
1.26e-07	7.1	6.8	6.4	2.51e-06	151		CC(C)c1ccc(COc2ccc(-c3c(-c4ccncc4)nn4c3N(CCO)CC4)cc2)cc1 [Co. 10]	> 1e-05			
1.58e-07	6.8	6.7		5.01e-07		6.8	CC(C)c1ccc(COc2ccc(-c3c(-c4ccncc4)nn4c3NC(=O)C4)cc2)cc1 [Co. 13]	> 1e-05			
1.26e-07	7.0	7.3		1e-07	290	~5.4	CC(C)c1ccc(COc2ccc(-c3c(-c4ccncc4)nn4c3NC(=O)CC4)cc2)cc1 [Co. 16]	> 1e-05			
3.98e-08	7.1	6.9		1e-07	205	7.6	CC(C)c1ccc(COc2ccc(-c3c(-c4ccncc4)nn4c3NCCC4)cc2)cc1 [Co. 17]	> 1e-05			
